Measurements as given in patent publication US11420977B2, “Late SV40 (LSF) inhibitors” (Trustees of Boston University, priority 2018, dated 2022).

Experiments:
[1] = tested on: SNU-423 cells; assay: MTS cell proliferation assay, SNU-423; assay type: cell-based; conditions: Homo sapiens, 120 hrs incubation
Description: (§1) Cell lines and culture conditions: Human colon cancer cells Caco-2, HT29 and HCT15, human pancreatic cancer cells BxPC3, CFPAC-1, and CAPAN-2, liver cancer cells SNU423 and kidney cells HEK293, were obtained from American Type Culture Collection (Rockville, USA). HeLa, DLD1, U937, THP-1, and NIH3T3 cells were obtained from ATCC. Huh7 cells were obtained from (Japanese Cancer Resources Bank). HeLa cells, Huh7, DLD1 and NIH-3T3 cells were cultured in DMEM (Dulbecco's modification of Eagle's Medium; Corning) supplemented with 10% Fetal Bovine Serum (FBS; Invitrogen) and 10% Fetal Calf Serum (FCS; Atlanta Biologicals) respectively. U937, BxPC3, HCT15, SNU423 and THP-1 cells were grown in RPMI-1640 (Roswell Park Memorial Institute; Corning) supplemented with 10% Fetal Bovine Serum (FBS; Invitrogen). CFPAC-1 cells were cultured in Iscove's Modified Dulbecco's Medium (ATCC) supplemented with 10% FBS. CAPAN-2 and HT29 cells were cultured in McCoy's 5a medium supplemented with 10% FBS. Caco2 and HEK293 cells were grown in Eagle's Minimum Essential Medium (ATCC) with final 20% FBS concentration. All cells were maintained at 37° C. in 5% CO2 at constant 70% humidity.
(§2) MTS cell proliferation assay: Cells were detached from the plates using trypsin (0.25% for 3 mins, ATCC) and counted using a hemocytometer and were plated at 3000-1500 cells per well, in a 96-well format. The cells were seeded in the inner wells of 96 well plates, and media was added to the outer wells (blank). For NIH-3T3, 1500 cells were seeded in the inner wells of 96-well plates, and after 20 hours cells were treated with compound or DMSO (vehicle control) at appropriate concentrations (DMSO at final concentration of 1%). For other adherent cells 3000 HeLa, BxPC3, CFPAC-1, CAPAN-2, HEK293, HCT15, HT29, CaCo2, DLD1, Huh7 or SNU423 cells were seeded in in each well approximately 20 hrs prior to the treatment. For U937 and THP-1 suspension cells, 2500 cells were added to the wells of a 96-well plate on the day of treatment. After a 72-hour (or 120 hrs for BxPC3, CAPAN-2, SNU423) incubation with compound or vehicle, cell growth was assessed via the Promega CellTiter 96® AQueous One Solution Cell Proliferation Assay, a colorimetric method to determine the number of viable cells. 20 μL of the CellTiter 96® AQueous One Solution Reagent was added directly into cultured wells and incubated for approximately one hour, after which the absorbance at 490 nm was read with a 96-well plate reader (Opys MR Microplate Reader). GI50 values were determined from plots of the percentage of compound-treated cell growth to vehicle cell growth vs. compound concentration (GraphPad Prism; non-linear regression, log inhibitor verse normalized response with variable slope).

[2] = tested on: HuH7 cells; assay: MTS cell proliferation assay, HuH7; assay type: cell-based; conditions: Homo sapiens, Huh-7, 72-hour incubation
Description: as §1, §2

[3] = tested on: HeLa cells; assay: MTS cell proliferation assay, HeLa; assay type: cell-based; conditions: Homo sapiens, 72-hour incubation
Description: as §1, with “All cells were maintained at 37° C. in 5% CO2 at constant 70% humidity.” left out
(§3) MTS cell proliferation assay: Cells were detached from the plates using trypsin (0.25% for 3 mins, ATCC) and counted using a hemocytometer and were plated at 3000-1500 cells per well, in a 96-well format. […] After a 72-hour (or 120 hrs for BxPC3, CAPAN-2, SNU423) incubation with compound or vehicle, cell growth was assessed via the Promega CellTiter 96® AQueous One Solution Cell Proliferation Assay, a colorimetric method to determine the number of viable cells. 20 μL of the CellTiter 96® AQueous One Solution Reagent was added directly into cultured wells and incubated for approximately one hour, after which the absorbance at 490 nm was read with a 96-well plate reader (Opys MR Microplate Reader). GI50 values were determined from plots of the percentage of compound-treated cell growth to vehicle cell growth vs. compound concentration (GraphPad Prism; non-linear regression, log inhibitor verse normalized response with variable slope).

[4] = tested on: NIH 3T3 cells; assay: MTS cell proliferation assay, NIH 3T3; assay type: cell-based; conditions: Mus musculus, NIH3T3, 72-hour incubation
Description: as §1, with “All cells were maintained at 37° C. in 5% CO2 at constant 70% humidity.” left out
as §3

[5] = target: T1, SET8 methylation of Histone H4 (Homo sapiens, UniProt Q9NQR1); assay: In vitro methylation assay, SET8 methylation of Histone H4; assay type: biochemical; conditions: histone H4 as substrate (FIG. 5C)
T1 construct: using full-length or overlapping segments of SET8 fused to GST; made in house; host or cells: E. coli
T1 sequence (Q9NQR1 1-352 isoform Q9NQR1-2): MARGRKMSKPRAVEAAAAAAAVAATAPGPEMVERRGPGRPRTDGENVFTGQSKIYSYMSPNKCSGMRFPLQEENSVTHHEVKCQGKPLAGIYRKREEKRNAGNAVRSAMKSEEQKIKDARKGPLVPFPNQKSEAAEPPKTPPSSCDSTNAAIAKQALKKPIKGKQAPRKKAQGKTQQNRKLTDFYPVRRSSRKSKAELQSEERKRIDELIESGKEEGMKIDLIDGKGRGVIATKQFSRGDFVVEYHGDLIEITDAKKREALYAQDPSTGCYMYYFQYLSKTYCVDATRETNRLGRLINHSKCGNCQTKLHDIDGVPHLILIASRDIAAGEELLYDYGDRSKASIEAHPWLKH
Description: (§4) One μg of recombinant GST-SET8 (in 50% glycerol) and 2 μg of the purified tubulin (MP-Bioscience) were incubated with radioactively labeled [3H] AdoMet at room temperature for overnight. As indicated, recombinant His-LSF protein or FQI1 inhibitor were added to the reaction. Samples were separated by electrophoresis through a 10% Tricine Gel (Invitrogen) and the gel was stained with Coomassie Brilliant Blue and incubated with EN3HANCE (PerkinElmer) solution. The gel was dried and exposed to autoradiography film for 1 week. Two […] of each peptide and 2 μg of purified SET8 or full-length SETD2 (Active Motif) were incubated with radioactively labeled [3H] AdoMet at room temperature overnight. Samples were spotted onto P81 filters (Whatman 3698325) and the filter were washed 3 times with 0.3 M ammonium bicarbonate. The ratio of incorporated [^3H]CH3 was determined using liquid scintillation counting.

[6] = target: T2, LSF-tubulin interaction (Homo sapiens, UniProt Q12800); assay: Co-immunoprecipitation of LSF with endogenous α-tubulin from HEK293T cells; assay type: cell-based; conditions: 2.5 μM for 24 hr
T2 construct: endogenous in cells; host or cells: HEK293T
T2 sequence (Q12800 whole entry): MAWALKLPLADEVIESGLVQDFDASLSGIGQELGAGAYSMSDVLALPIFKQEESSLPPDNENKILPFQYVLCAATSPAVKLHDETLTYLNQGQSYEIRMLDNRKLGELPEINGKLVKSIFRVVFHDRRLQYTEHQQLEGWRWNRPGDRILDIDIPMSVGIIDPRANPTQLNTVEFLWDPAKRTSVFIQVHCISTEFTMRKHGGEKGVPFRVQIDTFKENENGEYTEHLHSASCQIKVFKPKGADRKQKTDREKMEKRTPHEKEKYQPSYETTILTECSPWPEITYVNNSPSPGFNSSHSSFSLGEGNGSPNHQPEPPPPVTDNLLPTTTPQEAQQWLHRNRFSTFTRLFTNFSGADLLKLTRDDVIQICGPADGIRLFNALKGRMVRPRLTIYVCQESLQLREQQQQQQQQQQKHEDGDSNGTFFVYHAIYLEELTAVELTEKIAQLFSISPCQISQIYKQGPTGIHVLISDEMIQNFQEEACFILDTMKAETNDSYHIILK
Description: HEK293T, HeLa and COS7 cells were cultured in DMEM media supplemented with 10% FBS. FQI1 treatment of HEK293T cells was for 24 hours at 37° C. with 2.5 μM FQI1. Immunoprecipitation (IP) and immunofluorescence experiments were carried out as described previously. For the immunoprecipitation, 1 mg of total HEK293T cellular extract was incubated with 5 μg of either anti-SET8 antibody (Active Motif) or anti-LSF antibody (Millipore). The immunoprecipitates were blotted with anti-α tubulin, anti-β tubulin (Sigma T9026, T8328), anti-SET8 or anti-LSF (BD) antibodies as per the manufacturer's dilution recommendations. Cellular extracts were also immunoprecipitated with normal IgG (Cell Signaling Technology) as a negative control for all IP experiments.

[7] = tested on: aggressive HCC cell line; conditions: in vitro; cited from earlier work
[8] = tested on: synchronized HCC cells; assay: Mitotic phenotypes in synchronized HCC cells; assay type: cell-based; conditions: cells synchronized at G1/S border, released in presence of 5 μM
Description: FIG. 4A is a graph showing tubulin polymerization assay in the presence of low concentrations of LSF (Millipore kit). FIG. 4B are bands showing co-immunoprecipitation of LSF with endogenous α-tubulin from HEK293T cells which was disrupted upon treatment with 2.5 μM FQI1 for 24 hr. FIG. 4C is a graph showing tubulin polymerization assay in the presence of FQI1 and FQI2 (Cytoskeleton kit). Nocodazole was used as a control to inhibit polymerization. […] Cells were synchronized at the G1/S border and released in presence of 5 μM FQI1. Fixed cells were stained with α-tubulin antibody and DAPI.

[9] = tested on: synchronized HeLa cells; assay: Mitotic defects in synchronized HeLa cells; assay type: cell-based, human
Description: FIG. 8B is an image showing DAPI staining of synchronized cells, treated as indicated in panel FIG. 8A and analyzed at 20× magnification. Samples were collected at 0, 3, 6, and 19 hours post release from a G1/S block in presence of DMSO or FQI1. Insets represent individual cells in more detail. Arrows represent cells in metaphase or prometaphase, respectively, at the 6 hour time point. FIG. 8C is a bar graph showing quantification from 75-100 total cells analyzed by DNA and α-tubulin morphologies, indicating cells containing multi-asters, at 9 hours post release from a G1/S block. Data are representative of 2 experiments. FIG. 8D is a graph showing that the mitotic arrest mediated by limited FQI1 treatment of synchronized cells is reversible. Synchronized cells were released in the presence of 5 μM of FQI1 from a G1/S block. Ten hours after the release, the cells were washed and then either incubated with media alone or re-incubated with media in the presence of 5 μM FQI1. Samples were collected 24 hours post release. Fixed cells were stained with propidium iodide to analyze DNA content. […]

[10] = tested on: HCC tumors; conditions: cited from earlier work
[11] = tested on: tubulin methylation by SET8; assay: In vitro methylation assay, tubulin methylation by SET8; assay type: biochemical, porcine; conditions: with 862 nM LSF (FIG. 9B)
Description: as §4

[12] = target: T3, tubulin methylation by SET8 (Sus scrofa, UniProt M3V851); assay: as above; assay type: biochemical, porcine; conditions: at 100 μM (FIG. 5B lane 4); no LSF added
T3 construct: consistent with the presence of LSF in the tubulin preparations; purchased MP-Bioscience; host or cells: porcine brain (tubulin); GST-SET8 recombinant
T3 sequence (M3V851 1-502): as the sequence (Q12800 whole entry) above, with T168N, S302P counted along it
Description: as §4

[13] = target: T4, tubulin (Sus scrofa, UniProt P02550+P02554); assay: Tubulin polymerization assay (Cytoskeleton kit); assay type: biochemical; conditions: FIG. 4C
T4 construct: purchased Cytoskeleton
T4 sequence (P02550 whole entry): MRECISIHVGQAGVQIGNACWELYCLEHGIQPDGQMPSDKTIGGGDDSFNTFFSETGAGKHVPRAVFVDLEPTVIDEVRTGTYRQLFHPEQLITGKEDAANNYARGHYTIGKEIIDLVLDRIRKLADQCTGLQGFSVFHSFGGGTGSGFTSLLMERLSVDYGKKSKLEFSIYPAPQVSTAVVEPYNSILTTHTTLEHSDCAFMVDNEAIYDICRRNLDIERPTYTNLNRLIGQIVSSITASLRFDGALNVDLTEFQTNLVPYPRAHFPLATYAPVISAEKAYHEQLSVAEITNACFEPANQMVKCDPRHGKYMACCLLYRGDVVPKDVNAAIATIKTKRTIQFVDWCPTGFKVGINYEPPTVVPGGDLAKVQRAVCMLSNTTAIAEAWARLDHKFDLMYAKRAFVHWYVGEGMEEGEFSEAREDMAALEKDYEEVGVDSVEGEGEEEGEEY
T4 sequence (P02554 whole entry): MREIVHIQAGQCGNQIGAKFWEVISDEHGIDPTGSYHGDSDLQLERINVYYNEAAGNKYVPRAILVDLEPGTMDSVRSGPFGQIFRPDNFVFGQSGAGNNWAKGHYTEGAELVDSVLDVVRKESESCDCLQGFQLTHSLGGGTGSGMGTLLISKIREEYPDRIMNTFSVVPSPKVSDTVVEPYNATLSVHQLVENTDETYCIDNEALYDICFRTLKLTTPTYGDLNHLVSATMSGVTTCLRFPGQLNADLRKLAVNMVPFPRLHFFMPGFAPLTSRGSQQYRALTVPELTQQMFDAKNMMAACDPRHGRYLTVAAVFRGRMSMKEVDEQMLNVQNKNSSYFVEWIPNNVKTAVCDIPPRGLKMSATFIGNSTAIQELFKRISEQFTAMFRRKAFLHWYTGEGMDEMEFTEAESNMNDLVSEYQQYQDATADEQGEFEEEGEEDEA
Description: Quantitative determination of tubulin polymerization in vitro was carried out using the in vitro polymerization assay kits from either Millipore (17-10194) or Cytoskeleton (FQI1 assay only) according to the manufacturer's conditions. For the Millipopre kit, thawed tubulin was mixed with purified His-LSF, His-SET8 proteins or FQI1 in 70 μL final volumes of 1×PB-GTP solutions, and the 96-well plate was transferred to the pre-warmed (37° C.) SpectraMax M5 Microplate Reader to read UV-Visible Absorbance. Tubulin polymerization was followed by measuring the turbidity variation (light scattering) every 1 min at 350 nm for 1 hr.

[14] = tested on: RPE-hTERT Flp-In cells; assay: FQI34/FQI1 comparison, mitotic defects in RPE-hTERT Flp-In cells; assay type: cell-based; conditions: one hour treatment; FIG. 33
Description: RPE-hTERT Flp-In cells were incubated in serum-free DMEM:F12 media for 24 hours to synchronize the cells in G0/G1. Cells were stimulated to reenter the cell cycle with DMEM:F12 media containing 10% Fetal Bovine Serum. After 24 hours, the cells were treated with DMSO (vehicle), FQI1 (2.5 μM or 5 μM), or FQI34 (250 nM or 500 nM) for one hour. The cells were washed twice with 1×Phosphate-buffered Saline and fixed with PHEM (3.7% formaldehyde in 100 mM PIPES at pH 6.8, 10 mM EGTA, 1 mM magnesium chloride, and 0.2% Triton X-100) for 10 minutes at room temperature. The fixed cells were stained for α-tubulin using a mouse anti-α-tubulin antibody (Fisher #62204). Secondary antibodies were: DMSO/FQI1 samples—goat anti-mouse IgG conjugated to Alexa 546 (Thermo Fisher #A11003); FQI34 samples—goat anti-mouse IgG conjugated to Texas Red (Fisher #T-862). DNA was stained with Hoechst 33342. Cells were imaged using a Nikon NiE using the 40× objective and images were captured using a DS-Qi1 Mc 12 bit camera. Scale bars and merged images were generated using Fiji software.

| SMILES | GI50 [1] [nM] | GI50 [2] [nM] | GI50 [3] [µM] | GI50 [4] [nM] | effect on SET8 methylation of Histone H4 [5] | co-immunoprecipitation of LSF with endogenous α-tubulin [6] | apoptosis in HCC cell line [7] | mitotic phenotype [8] | reversibility of mitotic arrest after washout ([9]; 5 μM for 10 hours, then washout, 24 hours post release) | multi-aster formation ([9]; synchronized cells, short treatment prior to mitosis (FIG. 8C)) | toxicity to normal tissues ([10]; mouse HCC models) | tumor growth in mouse HCC models ([10]; multiple mouse HCC models) | effect on enhancement of tubulin methylation by exogenously added LSF [11] | decrease of tubulin methylation by SET8 [12] [fold] | effect on tubulin polymerization in vitro [13] | chromosome and spindle phenotype (DNA and α-tubulin immunofluorescence) [14] |
| --- | --- | --- | --- | --- | --- | --- | --- | --- | --- | --- | --- | --- | --- | --- | --- | --- |
| CCOc1cc(N(C)C)ccc1[C@H]1CC(=O)Nc2cc3c(cc21)OCO3 [(S)-FQI-34] | 50 | 56 | 3.8 | 590 |  |  |  |  |  |  |  |  |  |  |  |  |
| CCOc1cc(N(C)C)ccc1[C@H]1CC(=O)Nc2cc3c(cc21)OCCO3 [(S)-FQI-37] | 60 | 70 |  |  |  |  |  |  |  |  |  |  |  |  |  |  |
| CCOc1ccccc1C1CC(=O)Nc2cc3c(cc21)OCO3 (stereo not drawn) [FQI1] |  |  |  |  | does not affect | disrupted | induces apoptosis | abnormal mitotic phenotypes | reversible | concentration-dependent increase in multi-aster formation | no observable toxicity to normal tissues | significantly inhibits tumor growth | inhibited the ability of exogenously added LSF to enhance methylation of tubulin by SET8 | ~3 | inhibited tubulin polymerization | condensed, but nonaligned chromosomes and disrupted spindles |
